The values that follow come from patent US8278054B2, “Diagnosis of metal allergy through cytokine release by T-cells in vitro” (Mabtech AB, priority 2001, dated 2012).

Several values for one entry are separate records, joined by “and”; a condition that tells them apart may be missing. Equal entries are not always repeated.

The subject of one series is IL-13 producing PBMC. In words: IL-13 ELISpot assay. The class given is cell-based, human. The conditions noted are these: for IL-13 production in response to NiCl2 (ELISpot): 50 μM NiCl2, FIG. 1. The text has this:
(§1) Blood from ACD patients or control individuals were obtained by venipuncture and collected in sterile heparinised glass vials. Peripheral blood mononuclear cells (PBMC) were separated by density gradient centrifugation over Ficoll-Hypaque. After separation, PBMC were washed twice in medium (RPMI 1640 containing glutamin, Hepes, Penicillin/Streptomycin and 10% fetal calf serum (FCS)) and used fresh for experiments. Alternatively, PBMC were frozen in 90% FCS and 10% dimethylsulfoxide and kept in liquid nitrogen until tested. Prior to being tested, frozen cells were thawed at 37° C. and medium was added dropwise whereafter the cells were washed twice with medium.
(§2) The PBMC were stimulated with various concentrations of NiCl2 and both proliferative responses and cytokine responses were analysed. NiCl2 at a stock concentration of 50 mM was mixed with medium and incubated for more than five minutes before being added to cells. PBMC diluted to a cell concentration of 4-6×10^6 cells/ml were mixed with an equal volume of NiCl2 diluted in medium resulting in a final concentration of 2×10^6 cells/ml and NiCl2 at concentrations ranging from 10-100 μM. The cell suspensions were incubated in plastic vials for 4 h at 37° C. in a humidified incubator. In parallel with incubating PBMC with NiCl2, PBMC at the same concentration were incubated with mitogen (1 μg phytohemagglutinin (PHA)/ml), control antigens (10 μg tetanus toxoid (TT) or purified protein derivative (PPD)/ml) or in the absence of stimuli.
(§3) Matched pairs of monoclonal antibodies (mAb) to human IL-4, IL-5 or IL-13 were used for the ELISpot assays (Mabtech AB, Stockholm, Sweden). […]
(§4) Ninetysix-well plates with polyvinylidene difluoride membranes (MAIPS45-10, Millipore) were treated with 100 μl of 70% EtOH for 2-10 min followed by six washes with 200 μl sterile deionized H2O. […] After rinsing the plates with tap water, the plates were dried and spots were counted using a light microscope. […]

In a further series the test system is IL-5 producing PBMC. In words: IL-5 ELISpot assay. The class given is cell-based, human. Particulars: for IL-5 production in response to NiCl2 (ELISpot): 50 μM NiCl2, FIG. 1.
Source text: as §1, §2, §3, §4

In a further series the test system is IL-4 producing PBMC. The series can be described thus: IL-4 ELISpot assay. It is filed as cell-based, human. Particulars: for IL-4 producing cells/200 000 PBMC after stimulation with 50 μM NiCl2 / IL-4 producing cells/200 000 PBMC, 50-0 / IL-4 producing cells/200 000 PBMC after stimulation with 100 μM NiCl2 / IL-4 producing cells/200 000 PBMC, 100-0: one line per subject; for IL-4 producing cells/200 000 PBMC, 50-0: 50 μM NiCl2 after subtraction of spontaneous spots; for IL-4 producing cells/200 000 PBMC, 100-0: 100 μM NiCl2 after subtraction of spontaneous spots.
Source text: as §1, §2
Matched pairs of monoclonal antibodies (mAb) to human IL-4, IL-5 or IL-13 were used for the ELISpot assays (Mabtech AB, Stockholm, Sweden). For each pair, one mAb was used as a capture mAb: 82.4 (IL-4), TRFK5 (IL-5) and IL13-I (IL-13) and the other for detection, 12.1 (IL-4), 5A10 (IL-5) and IL13-II (IL-13). MAbs used for detection were biotinylated.
Ninetysix-well plates with polyvinylidene difluoride membranes (MAIPS45-10, Millipore) were treated with 100 μl of 70% EtOH for 2-10 min followed by six washes with 200 μl sterile deionized H2O. To each well, 100 μl of capture mAb at a concentration of 15 μg/ml in phosphate-buffered saline (PBS) was added and incubated over night at +4° C. The plates were washed three times with 200 μl or sterile PBS and three times with 200 μl medium containing 2% FCS. PBMC incubated for 4 h with or without stimuli in test tubes were suspended and 100 μl cell suspension (2×10^5 cells) was added to each well. After an additional incubation of 44 h, the wells were emptied and washed six times with 200 μl PBS. Biotinylated detection mAb at 1 μg/ml in PBS containing 0.5% FCS was added at a volume of 100 μl and incubated for 2 h at room temperature whereafter the wells were washed six times with PBS. Subsequently, 100 μl of SA-ALP (Streptavidin-Alkaline phosphatase, Mabtech) at 50 ng/ml in PBS with 0.5% FCS was added to each well and incubated for 1 h followed by washing in PBS six times before developing the wells with 100 μl nitroblue tetraxolium (NBT)/5-bromo-4-chloro-3-indolyl phosphate (BCIP) substrate (Sigma) for approximately 1 h. After rinsing the plates with tap water, the plates were dried and spots were counted using a light microscope.
(§5) Matched pairs of monoclonal antibodies (mAb) to human IL-4, IL-5, IL-13 or IFN-γ were used for ELISpot assays (Mabtech AB, Stockholm, Sweden). As in Example 4 above, for each pair, one mAb was used as a capture mAb and the other for detection. MAbs used for detection were biotinylated.
Ninetysix-well plates with polyvinylidene difluoride membranes (MAIPS45-10, Millipore) were treated with 100 μl of 70% EtOH for 2-10 min followed by six washes with 200 μl sterile deionized H2O. To each well, 100 μl of capture mAb at a concentration of 15 μg/ml in phosphate-buffered saline (PBS) was added and incubated over night at +4° C. The plates were washed three times with 200 μl or sterile PBS and three times with 200 μl medium containing 2% FCS. […]

Series [1] deals with ACD patients and control individuals. The series can be described thus: Epicutaneous patch test. It is filed as in vivo, human. The conditions noted are these: 48 h. On the procedure:
Prior to the patch testing of the control group, blood samples for ELISpot analysis were taken to avoid an impact of the patch test on the ELISpot analysis. Epicutaneous patch tests using 5% NiSO4 in petrolatum was applied for 48 h whereafter the reaction, sites were inspected. […] All ACD patients were selected based on previous patch tests giving scores of 2+ or 3+ having 3+ as the highest score.
Prior to the patch testing of the control group, blood samples for ELISpot analysis were taken to avoid an impact of the patch test on the ELISpot analysis. Epicutaneous patch tests were applied for 48 h whereafter the reaction sites were inspected. […] This patient also gave a negative result in the ELISpot assay (see Table 2).

In a further series the test system is IFN-γ producing PBMC. In words: IFN-γ ELISpot assay. The class given is cell-based, human. Particulars: Kathon stimulation, spontaneous spots subtracted; allergic individuals, one line per patient. On the procedure: Peripheral blood mononuclear cells (PBMC) were obtained from Kathon (methylisothiazolinone) allergy patients or control individuals as described in Example 2.
The PBMC were stimulated with Kathon (methylisothiazolinone) and cytokine responses were analysed.
as §5
Ninetysix-well plates with polyvinylidene difluoride membranes (MAIPS45-10, Millipore) were treated with 100 μl of 70% EtOH for 2-10 min followed by six washes with 200 μl sterile deionized H2O. To each well, 100 μl of capture mAb at a concentration of 15 μg/ml in phosphate-buffered saline (PBS) was added and incubated over night at +4° C. The plates were washed three times with 200 μl or sterile PBS and three times with 200 μl medium containing 2% FCS. PBMC incubated for 4 h with or without stimuli in test tubes were suspended and 100 μl cell suspension (2×10^5 cells) was added to each well. After an additional incubation of 44 h, the wells were emptied and washed six times with 200 μl PBS. […] After rinsing the plates with tap water, the plates were dried and spots were counted using a light microscope.

For the next series, the system named is PBMC. The series can be described thus: Proliferative response of PBMC (stimulation index). It is filed as cell-based, human. The conditions noted are these: one line per subject.
Source text: as §1
The PBMC were stimulated with various concentrations of NiCl2 and both proliferative responses and cytokine responses were analysed. NiCl2 at a stock concentration of 50 mM was mixed with medium and incubated for more than five minutes before being added to cells. PBMC diluted to a cell concentration of 4-6×10^6 cells/ml were mixed with an equal volume of NiCl2 diluted in medium resulting in a final concentration of 2×10^6 cells/ml and NiCl2 at concentrations ranging from 10-100 μM. The cell suspensions were incubated in plastic vials for 4 h at 37° C. in a humidified incubator. […]

The mark [2] stands for this setting: Kathon stimulation, spontaneous spots subtracted, allergic individuals, one line per patient.
[3] abbreviates: PBMC from allergic individuals (n=8).
[4] abbreviates: PBMC from non-allergic individuals (n=7).

Take `Cn1sccc1=O` [Kathon, methylisothiazolinone]: in the series with IL-13 producing PBMC (setting [2]), the “Number of responding cells (spots) per 200,000 cells, IL-13” value was 51 spots per 200,000 cells and 50 spots per 200,000 cells and 0 spots per 200,000 cells and 19 spots per 200,000 cells. The “Number of responding cells (spots) per 200,000 cells, IL-5” value in the series on IL-5 producing PBMC (setting [2]) is 3 spots per 200,000 cells and 5 spots per 200,000 cells and 0 spots per 200,000 cells and 2 spots per 200,000 cells. For the same molecule, the “Number of responding cells (spots) per 200,000 cells, IL-4” value in the series on IL-4 producing PBMC (setting [2]) is 14 spots per 200,000 cells and 21 spots per 200,000 cells and 0 spots per 200,000 cells and 3 spots per 200,000 cells. The Patch test response result in series [1] (Kathon (methylisothiazolinone), non-allergic controls) is “None of the controls responded positively”. Moreover, the “Number of responding cells (spots) per 200,000 cells, IFN-gamma” value in the series on IFN-γ producing PBMC was 39 spots per 200,000 cells and 113 spots per 200,000 cells and 0 spots per 200,000 cells and 21 spots per 200,000 cells.

With `[Cl][Ni][Cl]` [NiCl2], the results for the “IL-13 production in response to NiCl2 (ELISpot)” value in the series on IL-13 producing PBMC (setting [3]) and in the series on IL-13 producing PBMC (setting [4]) were “shown to produce” and “this was not seen”, respectively. For the same molecule, the entries for the “IL-5 production in response to NiCl2 (ELISpot)” value with IL-5 producing PBMC (setting [3]) and in the series with IL-5 producing PBMC (setting [4]) were “shown to produce” and “this was not seen”, respectively. Besides, the “IL-4 ELISpot mean values, allergic versus non-allergic group” value in the series on IL-4 producing PBMC (10 μM NiCl2, data not shown) is on record as “higher mean values for the allergic group”. For the same molecule, the “IL-4 producing cells/200 000 PBMC after stimulation with 50 μM NiCl2” value in the series on IL-4 producing PBMC (allergic group) is 137 cells/200 000 PBMC and 48 cells/200 000 PBMC and 19 cells/200 000 PBMC and 26 cells/200 000 PBMC and 127 cells/200 000 PBMC and 27 cells/200 000 PBMC and 60 cells/200 000 PBMC and 9 cells/200 000 PBMC and 8 cells/200 000 PBMC and 13 cells/200 000 PBMC and 23 cells/200 000 PBMC; in the series on IL-4 producing PBMC (non-allergic group), 3 cells/200 000 PBMC (2×) and 4 cells/200 000 PBMC (2×) and 9 cells/200 000 PBMC and 7 cells/200 000 PBMC and 1 cells/200 000 PBMC and 2 cells/200 000 PBMC (2×). Also, the “IL-4 producing cells/200 000 PBMC, 50-0” value with IL-4 producing PBMC (allergic group) was 134 cells/200 000 PBMC and 47 cells/200 000 PBMC and 17 cells/200 000 PBMC and 21 cells/200 000 PBMC (2×) and 118 cells/200 000 PBMC and 25 cells/200 000 PBMC and 55 cells/200 000 PBMC and 5 cells/200 000 PBMC and 7 cells/200 000 PBMC and 12 cells/200 000 PBMC; in the series with IL-4 producing PBMC (non-allergic group), 1 cells/200 000 PBMC and 2 cells/200 000 PBMC and 4 cells/200 000 PBMC and 0 cells/200 000 PBMC (6×). Further, the “IL-4 producing cells/200 000 PBMC after stimulation with 100 μM NiCl2” value was 21 cells/200 000 PBMC and 28 cells/200 000 PBMC (2×) and 122 cells/200 000 PBMC and 30 cells/200 000 PBMC and 63 cells/200 000 PBMC and 16 cells/200 000 PBMC and 18 cells/200 000 PBMC and 24 cells/200 000 PBMC in the series on IL-4 producing PBMC (allergic group); 5 cells/200 000 PBMC and 8 cells/200 000 PBMC (2×) and 4 cells/200 000 PBMC (2×) and 14 cells/200 000 PBMC and 1 cells/200 000 PBMC and 6 cells/200 000 PBMC in the series on IL-4 producing PBMC (non-allergic group). Moreover, the “IL-4 producing cells/200 000 PBMC, 100-0” value with IL-4 producing PBMC (allergic group) was 19 cells/200 000 PBMC and 23 cells/200 000 PBMC (2×) and 113 cells/200 000 PBMC and 28 cells/200 000 PBMC and 58 cells/200 000 PBMC and 12 cells/200 000 PBMC and 17 cells/200 000 PBMC and 25 cells/200 000 PBMC; in the series with IL-4 producing PBMC (non-allergic group), 3 cells/200 000 PBMC (2×) and 1 cells/200 000 PBMC (2×) and 5 cells/200 000 PBMC and 2 cells/200 000 PBMC and 0 cells/200 000 PBMC and 4 cells/200 000 PBMC. For the same molecule, the “Proliferation (SI) (50 μM NiCl2)” value is “higher in the group of allergic individuals and 15.9 and 8.4 and 15.4 and 16.2 and 11.8 and 24.9 and 11.0 and 31.6 and 44.8 and 10.1 and 92.2” in the series with PBMC (PBMC of allergic group); 3.1 (2×) and 0.9 and 1.2 and 2.0 and 3.3 and 6.8 and 5.1 and 8.2 in the series on PBMC (PBMC of non-allergic group).

On to `O=S(=O)([O-])[O-].[Ni+2]` [NiSO4], for which, in series [1] (5% NiSO4 in petrolatum, non-allergic group, one line per subject), the Patch test reactivity entry is “None of the controls responded positively”.
